Values joined by “and” are separate entries in the source; they are usually repeats but may differ in a detail not shown here. Equal entries are not always repeated. Marks after values point to notes of the source that are not given here.
System: male Cynomolgus monkeys (Macaca fascicularis)
Experiment: Erection monitoring after single intracavernosal dose
Type: in vivo
Set-up: key to Onset Score / Duration Score: 0: no response; erection but transient—less than 1 minute; 2: erection lasting at least 1 minute but less than 5 minutes; 3: erection lasting at least 5 minutes but less than 7 minutes; 4: erection lasting longer than 7 minutes
Conditions: for Erection Score: Erection Score=2D+O; for Onset of Erection: minutes post administration; for Erection Index: Erection Score/n, n=number of animals (4 monkeys)
Experimental: In this example, various halogenated derivatives of flosequinan were evaluated for their ability to induce penile erections. A single intracavernosal dose (of a given halogenated derivative of flosequinan) was administered to male Cynomolgus monkeys (Macaca fascicularis). The Cynomolgus monkey was selected because it is an appropriate established non-rodent species to be used as an erectile dysfunction model. Before the application of the test substances the possible erectile effect of dimethylsulfoxide 25% (DMSO) at a dose volume of 0.15 ml was assessed. (Concentrations of test compounds of less than 10 mg/ml were administered in 25% DMSO. Concentrations of 10 mg/ml or greater were administered in 100% DMSO). An initial dose level of 0.625 mg/kg of the test substance and the derivatives were used. If an erectile effect of the initial dose level was observed 1.25 mg/kg and finally 2.5 mg/kg of each test substance was used. Between each dose level and change of test substance there was a wash out phase of three days [except on Days 1 to 4 (Monochloroflosequinan Racemate) and days 40 to 43 (Monofluoroflosequinan) of the study where there was a wash out phase of only two days between treatments]. Dose volume: A dose volume of 0.15 ml per animal was used. The test substances were prepared according to the following scheme. For each test substance 10 mg was diluted in 1 ml of DMSO. After the test substance was completely dissolved the solution was diluted stepwise 1:2 with double distilled water to the required dose level. The test substance was formulated on the day of the dosing and stored at room temperature. No stability test was required when the test substances were formulated on the day of dosing. Remaining test substances were stored at approximately -80° C. Sufficient purpose-bred naive Cynomolgus monkeys (Macaca fascicularis) were obtained from a recognized supplier in order to provide 4 healthy male animals. At the start of study the animals were in the weight range of 4 to 7 kg and approximately 4 to 6 years old. The animals were housed in a climate controlled room to provide a minimum of 10 air changes per hour. Routinely the temperature and relative humidity ranges were between 19-25° C. and 30-70% respectively. Artificial lighting was controlled automatically to give a cycle of 12 hours light and 12 hours dark. The animals were housed singly in stainless steel cages (dimensions: 600 mm×600 mm×800 mm; E. Becker & Co. GmbH, 44579 Castrop-Rauxel, Germany). Each animal was offered twice daily between 50 to 70 g of a commercial pellet diet for primates (Ssniff P10, Ssniff Spezialdiäten GmbH, Ferdinand-Gabriel-Weg 16, 59494 Soest, Germany). Every three months diet was analyzed for specific contaminants. Tap water was provided ad libtum via an automatic watering system or bottles, except during urine collection. The water was periodically analyzed for specific contaminants found to be present in the diet or water at levels that might interfere with achieving the objective of the study. Clinical Observations: In addition to the initial pharmacological effect (penile erection) monitoring, all animals were observed twice daily for signs of ill health or overt toxicity. An individual record was maintained of the clinical condition of each animal. Post-dosing observations were performed at the discretion of the Study Director. All animals were examined at the beginning and the end of the working hours. […] Body weights were recorded once before dosing. Food consumption was not recorded. For proof of erection capability the animals were checked once pre-dose with electrostimulation using a rectal probe under sedation with […]. […] The onset post drug administration and duration of erection were recorded. Table 5 (below) provides an “Erection Score” and “Erection Index” for the same selected halogenated flosequinan derivatives presented in Table 5. […]

[1] = 0.625 mg/ml intracavernosal, monkey 11539M
[2] = 0.625 mg/ml intracavernosal, monkey 11543M
[3] = 0.625 mg/ml intracavernosal, monkey 11584M
[4] = 0.625 mg/ml intracavernosal, monkey 11590M
[5] = 2.5 mg/ml intracavernosal, monkey 11539M
[6] = 2.5 mg/ml intracavernosal, monkey 11543M
[7] = 2.5 mg/ml intracavernosal, monkey 11584M
[8] = 2.5 mg/ml intracavernosal, monkey 11590M
[9] = 10 mg/ml intracavernosal, monkey 11539M
[10] = 10 mg/ml intracavernosal, monkey 11543M
[11] = 10 mg/ml intracavernosal, monkey 11584M
[12] = 10 mg/ml intracavernosal, monkey 11590M

Cn1cc([S+]([O-])CCl)c(=O)c2ccc(F)cc21 (racemic) [monochloroflosequinan, 3-chloromethylsulfinyl-7-fluoro-1-methyl-4-quinolone]
Duration Score [1]: 0 | Onset Score [1]: 0 | Erection Score [1]: 0 | Duration Erection [2]: <1 min-^ | Duration Score [2]: 0 | Onset Score [2]: 0 | Onset of Erection [2]: 70^a* min | Erection Score [2]: 0 | Duration Score [3]: 0 | Onset Score [3]: 0 | Erection Score [3]: 0 | Duration Score [4]: 0 | Onset Score [4]: 0 | Erection Score [4]: 0 | Erection Index (0.625 mg/ml intracavernosal): 0 | Duration Score [5]: 0 | Onset Score [5]: 0 | Erection Score [5]: 0 | Duration Score [6]: 0 | Onset Score [6]: 0 | Erection Score [6]: 0 | Duration Score [7]: 0 | Onset Score [7]: 0 | Erection Score [7]: 0 | Duration Score [8]: 0 | Onset Score [8]: 0 | Erection Score [8]: 0 | Erection Index (2.5 mg/ml intracavernosal): 0 | Duration Score [9]: 0 | Onset Score [9]: 0 | Erection Score [9]: 0 | Duration Score [10]: 0 | Onset Score [10]: 0 | Erection Score [10]: 0 | Duration Score [11]: 0 | Onset Score [11]: 0 | Erection Score [11]: 0 | Duration Score [12]: 0 | Onset Score [12]: 0 | Erection Score [12]: 0 | Erection Index (10 mg/ml intracavernosal): 0

Cn1cc([S@+]([O-])CCl)c(=O)c2ccc(F)cc21 (single isomer, unassigned) [(+)-enantiomer of monochloroflosequinan]
Duration Erection [5]: <1 min | Duration Score [5]: 1 (erection but transient—less than 1 minute) | Onset Score [5]: 1 (erection onset longer than 10 minutes) | Onset of Erection [5]: 107* min | Erection Score [5]: 3 | Duration Erection [6]: <1 min | Duration Score [6]: 1 (erection but transient—less than 1 minute) | Onset Score [6]: 1* (erection onset longer than 10 minutes) | Onset of Erection (2.5 mg/ml intracavernosal, monkey 11543M, listed as MONOCHLOROFLOSEQUINAN S(+)): 34* min and 38* min and 39^a* ejaculation min | Erection Score [6]: 3 | Duration Score [7]: 1 (erection but transient—less than 1 minute) | Onset Score [7]: 1 (erection onset longer than 10 minutes) | Erection Score [7]: 3 | Duration Score [8]: 3 (erection lasting at least 5 minutes but less than 7 minutes) | Onset Score [8]: 4 (erection onset 1 minute or less (immediate)) | Erection Score [8]: 10 | Erection Index (2.5 mg/ml intracavernosal): 4.8 | Duration Score [9]: 0 | Onset Score [9]: 4* (erection onset 1 minute or less (immediate)) | Erection Score [9]: 4 | Duration Score [10]: 0 | Onset Score [10]: 0 | Erection Score [10]: 0 | Duration Erection [11]: <1 min | Duration Score [11]: 1 (erection but transient—less than 1 minute) | Onset Score [11]: 3* (erection onset between 2 and 4 minutes) | Erection Score [11]: 5 | Duration Erection [12]: 8 min | Duration Score [12]: 4 (erection lasting longer than 7 minutes) | Onset Score [12]: 4 (erection onset 1 minute or less (immediate)) | Onset of Erection [12]: immediate <1 min | Erection Score [12]: 12 | Erection Index (10 mg/ml intracavernosal): 5.3 | inducing penile erections (Cynomolgus monkeys, intracavernosal, summary of Tables 4 & 5): especially effective

Cn1cc([S@@+]([O-])CCl)c(=O)c2ccc(F)cc21 (single isomer, unassigned) [(−)-enantiomer of monochloroflosequinan]
Duration Score [9]: 0 | Onset Score [9]: 0 | Erection Score [9]: 0 | Duration Score [10]: 0 | Onset Score [10]: 0 | Erection Score [10]: 0 | Duration Score [11]: 0 | Onset Score [11]: 0 | Erection Score [11]: 0 | Duration Erection [12]: 7 min | Duration Score [12]: 3 (erection lasting at least 5 minutes but less than 7 minutes) | Onset Score [12]: 4 (erection onset 1 minute or less (immediate)) | Onset of Erection [12]: immediate <1 min | Erection Score [12]: 10 | Erection Index (10 mg/ml intracavernosal): 2.5

Source: US7041677B2, “Use of monochloroflosequinan in the treatment of sexual dysfunction” (R.T. Alamo Ventures I, LLC, priority 2002, dated 2006)
